Laboratory results reported in patent publication US4843070A, “Substituted thiazetoquinoline-3-carboxylic acids and pharmaceutically acceptable salts thereof” (priority 1986, dated 1989).
Values after ≈ are worked out from the molar mass of the structure shown. Like-named read-outs stand apart in the source and are kept apart here.

Legend:
[1] = tested on: S. aureus 209-P JC; assay: MIC by agar plate dilution method, S. aureus 209-P JC; type: cell-based; details: Staphylococcus aureus, S. aureus 209-P JC, inoculum 10^6, 37° C., 18 hours, read-out: minimum inhibitory concentration (MIC)
Experimental: (§1) Test method: The MIC was measured by an agar plate dilution method in accordance with a standard method of Japan Chemotherapeutic Society (cf. Nippon Kagaku Ryoho Gakkaishi, 29(1), 76-79, 1981). Thus, the organisms incubated at 37° C. for 18 hours using sensitivity test broth (Nissei) was diluted to 10^6 CFU/ml using the same broth. […] As a control, enoxacin and ofloxacin were used in Tests 1 and 2, respectively.
(§2) The numbers of the inoculated bacteria were 10^6 in all cases and the unit of the MIC was micrograms/ml.

[2] = tested on: M. luteus ATCC 9341; assay: MIC by agar plate dilution method, M. luteus ATCC 9341; type: cell-based; details: Micrococcus luteus, ATCC9341, inoculum 10^6, 37° C., 18 hours, read-out: minimum inhibitory concentration (MIC)
Experimental: as §1, §2

[3] = tested on: B. subtilis ATCC 6633; assay: MIC by agar plate dilution method, B. subtilis ATCC 6633; type: cell-based; details: Bacillus subtilis, ATCC6633, B. subtilis ATCC 6633, inoculum 10^6, 37° C., 18 hours, read-out: minimum inhibitory concentration (MIC)
Experimental: as §1, §2

[4] = tested on: E. coli NIHJ JC-2; assay: MIC by agar plate dilution method, E. coli NIHJ JC-2; type: cell-based; details: Escherichia coli, NIHJJC2, E. coli NIHJ JC-2, inoculum 10^6, 37° C., 18 hours, read-out: minimum inhibitory concentration (MIC)
Experimental: as §1, §2

[5] = tested on: K. pneumoniae K-1966; assay: MIC by agar plate dilution method, K. pneumoniae K-1966; type: cell-based; details: Klebsiella pneumoniae, K1966, K. pneumoniae K-1966, inoculum 10^6, 37° C., 18 hours, read-out: minimum inhibitory concentration (MIC)
Experimental: as §1, §2

[6] = tested on: S. marcescens IFO 3736; assay: MIC by agar plate dilution method, S. marcescens IFO 3736; type: cell-based; details: Serratia marcescens, IFO3736, inoculum 10^6, 37° C., 18 hours, read-out: minimum inhibitory concentration (MIC)
Experimental: as §1, §2

[7] = tested on: S. flexneri; assay: MIC by agar plate dilution method, S. flexneri; type: cell-based; details: Shigella flexneri, 18 hours, read-out: minimum inhibitory concentration (MIC)
Experimental: as §1, §2

[8] = tested on: P. aeruginosa E-2; assay: MIC by agar plate dilution method, P. aeruginosa E-2; type: cell-based; details: Pseudomonas aeruginosa, E2, P. aeruginosa E-2, inoculum 10^6, 37° C., 18 hours, read-out: minimum inhibitory concentration (MIC)
Experimental: as §1, §2

[9] = tested on: S. epidermidis; assay: MIC by agar plate dilution method, S. epidermidis; type: cell-based; details: Staphylococcus epidermidis, Test 2, inoculum 10^6, 37° C., 18 hours, read-out: minimum inhibitory concentration (MIC)
Experimental: as §1, §2

[10] = tested on: Proteus mirabilis 181; assay: MIC by agar plate dilution method, Proteus mirabilis 181; type: cell-based; details: Test 2; Proteus mirabilis 181; inoculum 10^6; 37° C., 18 hours; read-out: minimum inhibitory concentration (MIC)
Experimental: as §1, §2

[11] = tested on: E. coli KC-14; assay: Therapeutic effect on infection in mice, E. coli KC-14; type: in vivo, ddY-strain male mice; details: Escherichia coli, KC14, po, 168 h
Experimental: (§3) Test Method: Escherichia coli KC-14 and Psudomonas aeruginosa E-2 were suspended in 4% mucin and 0.25 ml of it was inoculated into peritoneal cavity of ddY-strain male mice (body weight about 20 g; 4 weeks age; 10 mice per group). The numbers of the inoculated bacteria were 5.1×10^4 CFU/mouse and 7.5×10^4 CFU/mouse for E. coli and P. aeruginosa, respectively. The drug was administered orally once 2 hours after the infection of the bacteria and, out of the survival rate after one week, the ED50 values were calculated by a Behrens-Karber method. As controls, ofloxacin and enoxacin were used.
(§4) Bacteria used for calculating ED50 were E. coli KC-14 for (1) and P. aeruginosa E-2 for (2). The compounds (1) to (7) of the present invention designated in Table 2 are as follows.

[12] = tested on: P. aeruginosa E-2; assay: Therapeutic effect on infection in mice, P. aeruginosa E-2; type: in vivo, ddY-strain male mice; details: Pseudomonas aeruginosa, E2, po, 168 h
Experimental: as §3, §4

[13] = tested on: infections caused by Gram positive bacteria and Pseudomonas aeruginosa (chronic); details: background statement; cited from earlier work
[14] = in vivo; details: mouse, oral administration, ddY-strain male mice, 2 weeks
Text: The result of oral administration to ddY-strain male mice (7 weeks age; body weight ca. 35 g; 3 mice per group) for 2 weeks was given.

[15] = tested on: S. aureus Smith; assay: MIC by agar plate dilution method, S. aureus Smith; type: cell-based; details: Staphylococcus aureus; Test 1; S. aureus Smith; inoculum 10^6; 37° C., 18 hours; read-out: minimum inhibitory concentration (MIC)
Experimental: as §1, §2

[16] = tested on: E. coli KC-14; assay: MIC by agar plate dilution method, E. coli KC-14; type: cell-based; details: Escherichia coli, KC14; Test 1; E. coli KC-14; inoculum 10^6; 37° C., 18 hours; read-out: minimum inhibitory concentration (MIC)
Experimental: as §1, §2

[17] = tested on: E. cloacae No. 1; assay: MIC by agar plate dilution method, E. cloacae No. 1; type: cell-based; details: Enterobacter cloacae; Test 1; E. cloacae No. 1; inoculum 10^6; 37° C., 18 hours; read-out: minimum inhibitory concentration (MIC)
Experimental: as §1, §2

[18] = tested on: P. vulgaris HX-19; assay: MIC by agar plate dilution method, P. vulgaris HX-19; type: cell-based; details: Proteus vulgaris, HX19, Test 1, inoculum 10^6, 37° C., 18 hours, read-out: minimum inhibitory concentration (MIC)
Experimental: as §1, §2

[19] = tested on: A. calcoaceticus 54; assay: MIC by agar plate dilution method, A. calcoaceticus 54; type: cell-based; details: Acinetobacter calcoaceticus; Test 1; A. calcoaceticus 54; inoculum 10^6; 37° C., 18 hours; read-out: minimum inhibitory concentration (MIC)
Experimental: as §1, §2

[20] = E. coli KC-14, 5.1×10^4 CFU/mouse i.p., drug orally once 2 hours after infection, survival after one week, read-out: ED50
[21] = P. aeruginosa E-2, 7.5×10^4 CFU/mouse i.p., drug orally once 2 hours after infection, survival after one week, read-out: ED50

SMILES: CC1COc2c(N3CCN(C)CC3)c(F)cc3c(=O)c(C(=O)O)cn1c23 (racemic) [Ofloxacin, ofloxacin, reference compound]
- MIC ([1]; Test 2): 0.78 mg/L (≈ 2.16 µM)
- MIC ([2]; Test 2, M. luteus ATTC 9341): 3.13 mg/L (≈ 8.66 µM)
- MIC ([3]; Test 2): 0.2 mg/L (≈ 0.553 µM)
- MIC ([4]; Test 2): 0.05 mg/L (≈ 0.138 µM)
- MIC ([5]; Test 2): 0.1 mg/L (≈ 0.277 µM)
- MIC ([6]; Test 2, S. Marcescens IFO 3736): 0.39 mg/L (≈ 1.08 µM)
- MIC ([7]; Test 2, inoculum 10^6, 37° C.): 0.1 mg/L (≈ 0.277 µM)
- MIC ([8]; Test 2): 1.56 mg/L (≈ 4.32 µM)
- MIC [9]: 1.56 mg/L (≈ 4.32 µM)
- MIC [10]: 0.1 mg/L (≈ 0.277 µM)
- ED50 [11, 20]: 0.8 mg/kg
- ED50 [12, 21]: 16 mg/kg
- activity against infections caused by Gram positive bacteria and Pseudomonas aeruginosa (chronic) [13]: not active

SMILES: CCOC(=O)c1c2n(c3cc(N4CCN(C)C(C)C4)c(F)cc3c1=O)C(C)S2 (stereo not drawn) [Table 2 (3), Ethyl 7-(3,4-dimethyl-1-piperazinyl)-6-fluoro-1-methyl-4-oxo-4H-(1,3)thiazeto(3,2-a)quinoline-3-carboxylate]
- LD50 at 336 h [14]: ≥ 3000 mg/kg

SMILES: CCn1cc(C(=O)O)c(=O)c2cc(F)c(N3CCNCC3)nc21 [Enoxacin, enoxacin, reference compound]
- MIC ([1]; Test 1): 0.78 mg/L (≈ 2.44 µM)
- MIC [15]: 0.78 mg/L (≈ 2.44 µM)
- MIC ([2]; Test 1, M. luteus ATCC 9341): 25 mg/L (≈ 78 µM)
- MIC ([3]; Test 1): 0.2 mg/L (≈ 0.624 µM)
- MIC ([4]; Test 1): 0.2 mg/L (≈ 0.624 µM)
- MIC [16]: 0.1 mg/L (≈ 0.312 µM)
- MIC ([5]; Test 1): 0.2 mg/L (≈ 0.624 µM)
- MIC [17]: 0.1 mg/L (≈ 0.312 µM)
- MIC ([6]; Test 1, S. marcescens IFO 3736): 0.39 mg/L (≈ 1.22 µM)
- MIC [18]: 0.05 mg/L (≈ 0.156 µM)
- MIC ([7]; Test 1, inoculum 10^6, 37° C.): 0.1 mg/L (≈ 0.312 µM)
- MIC ([8]; Test 1): 0.78 mg/L (≈ 2.44 µM)
- MIC [19]: 1.56 mg/L (≈ 4.87 µM)
- ED50 [11, 20]: 1.8 mg/kg
- ED50 [12, 21]: 13.1 mg/kg
- activity against infections caused by Gram positive bacteria and Pseudomonas aeruginosa (chronic) [13]: not active

SMILES: CC1Sc2c(C(=O)O)c(=O)c3cc(F)c(N4CCN(C)CC4)cc3n21 (stereo not drawn) [Table 1 (2), 6-Fluoro-1-methyl-7-(4-methyl-1-piperazinyl)-4-oxo-4H-(1,3)thiazeto(3,2-a)quinoline-3-carboxylic acid]
- LD50 at 336 h [14]: ≥ 3000 mg/kg

SMILES: CC1Sc2c(C(=O)O)c(=O)c3cc(F)c(N4CCN(C)CC4)cc3n21.O=S(=O)(O)O (stereo not drawn) [Table 1 (5), 6-Fluoro-1-methyl-7-(4-methyl-1-piperazinyl)-4-oxo-4H-(1,3)thiazeto(3,2-a)quinoline-3-carboxylic acid sulfate]
- ED50 [11]: 0.5 mg/kg
- ED50 [12]: 4 mg/kg

SMILES: CC(=O)CN1CCN(c2cc3c(cc2F)c(=O)c(C(=O)O)c2n3C(C)S2)CC1 (stereo not drawn) [Table 2 (6), 7-(4-Acetonyl-1-piperazinyl)-6-fluoro-1-methyl-4-oxo-4H-(1,3)thiazeto(3,2-a)quinoline-3-carboxylic acid]
- ED50 [11, 20]: 0.6 mg/kg
- ED50 [12, 21]: 5 mg/kg

SMILES: CCOC(=O)c1c2n(c3cc(N4CCN(CC(C)=O)CC4)c(F)cc3c1=O)C(C)S2 (stereo not drawn) [Table 2 (5), Ethyl 7-(4-acetonyl-1-piperazinyl)-6-fluoro-1-methyl-4-oxo-4H-(1,3)thiazeto(3,2-a)quinoline-3-carboxylate]
- LD50 at 336 h [14]: ≥ 3000 mg/kg
